Experiment: in vitro
Conditions: human, hela cells, % viability

Row | Compound | viability at 28.5 h, 10 µM
1 | O=C(O)c1cc(-c2c[nH]c3ccc(Cl)cc23)[nH]n1 [CBK287257] | 95%
2 | O=C(CCCCCN1C(=O)c2ccccc2C1=O)Nc1cccc(C(=O)O)c1 [CBK287261] | 85.4%
3 | Cc1ccc(/C=C/C(=O)O)cc1S(=O)(=O)NCC1CCCO1 (stereo not shown) [CBK287267] | 82.5%
4 | COc1cc(-c2cc(C(=O)O)c3c(-c4ccc(C)cc4)n[nH]c3n2)ccc1O [CBK287268] | 83.9%
5 | O=C(O)C1(NCc2ccccc2Cl)CCCCC1 [CBK287269] | 78.9%
6 | O=C(O)CCN1CCN(Cc2ccc(Cl)cc2)CC1 [CBK287271] | 87.5%
7 | Cc1cnn(-c2cc(Oc3ccccc3)ncn2)c1 [CBK287276] | 114%
8 | CN1CCc2c(sc3c2C(=O)NC(c2ccco2)N3)C1 (stereo not shown) [CBK287277] | 99.4%
9 | c1ccc(Nc2nc3nonc3n3cnnc23)cc1 [CBK287278] | 105%
10 | c1ccc(Nc2c(-c3ccccc3)nc3[nH]cnn23)cc1 [CBK287284] | 89.4%
11 | Cc1csc2ncc(C(=O)NCc3ccccc3)c(=O)n12 [CBK287290] | 89.3%
12 | COc1ccc(CCNC(=O)c2cnc3scc(C)n3c2=O)cc1 [CBK287291] | 103%
13 | COc1ccccc1CNC(=O)c1cnc2scc(C)n2c1=O [CBK287293] | 102%
14 | Cc1ccc(-n2c(=O)[nH]c3c(C(N)=O)nc(CC(C)C)nc32)cc1 [CBK287294] | 102%
15 | COc1cc(C(=O)Nc2nc3c(s2)CC(C)CC3)cc(OC)c1OC (stereo not shown) [CBK287299] | 107%
16 | Cc1cccc2sc(NC(=O)c3ccccc3)nc12 [CBK287300] | 102%
17 | COc1cc(C(=O)Nc2nc3c(C)cccc3s2)cc(OC)c1OC [CBK287302] | 98.5%
18 | COc1ccccc1C(=O)Nc1nc2ccc(NC(C)=O)cc2s1 [CBK287303] | 88.3%
19 | CC(=O)Nc1ccc2nc(NC(=O)c3ccc(C)cc3)sc2c1 [CBK287304] | 103%
20 | CC(=O)Nc1ccc2nc(NC(=O)c3ccc(C#N)cc3)sc2c1 [CBK287309] | 92.4%
21 | CC(=O)c1sc(NC(=O)c2ccccc2)nc1-c1ccccc1 [CBK287315] | 87.8%
22 | COc1ccc2nc(NC(=O)c3ccc(Br)s3)sc2c1 [CBK287316] | 92.8%
23 | CC1(C)CC(=O)c2sc(NC(=O)Nc3ccccc3)nc2C1 [CBK287319] | 104%
24 | N#Cc1ccc(-c2csc(NC(=O)c3ccc(Cl)s3)n2)cc1 [CBK287321] | 100%

Row | Compound | viability at 28.5 h, 10 µM
25 | Cc1cccc(C(=O)Nc2nc3ccc(S(C)(=O)=O)cc3s2)c1 [CBK287323] | 89.8%
26 | CCC(=O)Nc1sc2c(c1-c1nc3ccccc3s1)CCCC2 [CBK287324] | 91.7%
27 | COc1ccc(C(=O)Nc2nc(-c3ccc(OC)cc3)cs2)cc1 [CBK287325] | 99.2%
28 | O=C(Nc1nc2c(s1)CCCC2)c1ccccc1 [CBK287326] | 82.9%
29 | O=C(Nc1nc(-c2cccs2)cs1)c1ccc(F)cc1 [CBK287327] | 86.7%
30 | CC1(C)CC(=O)c2sc(NC(=O)C3CC3)nc2C1 [CBK287329] | 104%
31 | O=C(Nc1nc2c(s1)CCc1ccccc1-2)C1CC1 [CBK287330] | 85.3%
32 | Cc1ccccc1-c1nnc(NC(=O)c2ccc(N3C(=O)CCC3=O)cc2)s1 [CBK287332] | 85.9%
33 | O=C(Nc1nc(-c2ccccc2)cs1)c1ccc(N2C(=O)CCC2=O)cc1 [CBK287333] | 97.7%
34 | Cc1ccc2nc(NC(=O)COc3ccccc3)sc2c1 [CBK287335] | 91%
35 | Cc1ccccc1C(=O)Nc1nc2ccc(S(C)(=O)=O)cc2s1 [CBK287337] | 95.1%
36 | COc1ccc(C(=O)Nc2nc3ccc(S(C)(=O)=O)cc3s2)cc1 [CBK287338] | 94.3%
37 | CS(=O)(=O)c1ccc2nc(NC(=O)Cc3ccccc3)sc2c1 [CBK287339] | 89.8%
38 | CS(=O)(=O)c1ccc2nc(NC(=O)c3ccco3)sc2c1 [CBK287341] | 95.4%
39 | COc1cccc(C(=O)Nc2nc3ccc(F)cc3s2)c1 [CBK287342] | 86.9%
40 | C=CCSc1nc2sc3c(c2c(=O)[nH]1)CCCC3 [CBK287344] | 110%
41 | Cc1ccc(-c2csc(NC(=O)CN3C(=O)CCC3=O)n2)cc1 [CBK287346] | 98.3%
42 | CCc1ccc(-c2csc(NC(=O)CN3C(=O)CCC3=O)n2)cc1 [CBK287347] | 90.3%
43 | Cc1ccc(-c2csc(NC(=O)CN3C(=O)CCC3=O)n2)c(C)c1 [CBK287348] | 86.7%
44 | Cc1cc(NC(=O)c2cccc(N3C(=O)CCC3=O)c2)no1 [CBK287352] | 112%
45 | O=C(Nc1ccccn1)c1cc2ccccc2oc1=O [CBK287354] | 91.7%
46 | Clc1ccc(Nc2ncnc3c2cnn3-c2ccc(Cl)cc2)cc1 [CBK287356] | 86.1%
47 | c1ccc(-n2ncc3c(N4CCCC4)ncnc32)cc1 [CBK287357] | 86.6%
48 | COc1ccccc1-c1nnc(NC(=O)Cc2cccs2)s1 [CBK287361] | 93.5%

Row | Compound | viability at 28.5 h, 10 µM
49 | CC(=O)N1CCN(c2nc3ccccc3s2)CC1 [CBK287362] | 95%
50 | CC(=O)c1ccc(C(=O)Nc2nc3c(s2)COc2ccccc2-3)cc1 [CBK287363] | 81.9%
51 | Cc1cccc2sc(NC(=O)C3COc4ccccc4O3)nc12 (stereo not shown) [CBK287367] | 113%
52 | NC(=O)c1c(NC(=O)c2ccc3ncsc3c2)sc2c1CCCC2 [CBK287369] | 94.4%
53 | O=C(Nc1nc(-c2ccncc2)cs1)C1COc2ccccc2O1 (stereo not shown) [CBK287370] | 96.7%
54 | Cc1ccccc1NC(=O)c1cnc2n(c1=O)CCS2 [CBK287374] | 110%
55 | Cc1ccc(NC(=O)c2cnc3n(c2=O)CCS3)cc1 [CBK287376] | 108%
56 | O=C(Nc1cccc2c1CCCC2)c1cnc2n(c1=O)CCS2 [CBK287379] | 105%
57 | O=C(Nc1ccc(Cl)c(Cl)c1)c1cnc2n(c1=O)CCS2 [CBK287381] | 108%
58 | CCN(C(=O)c1cnc2n(c1=O)CCS2)c1ccccc1 [CBK287384] | 103%
59 | Fc1ccc(N2CCN(c3ncnc4[nH]cnc34)CC2)cc1 [CBK287387] | 89.8%
60 | Cc1cc(NC(=O)CSc2nnc(-c3ccccc3)o2)no1 [CBK287389] | 96.2%
61 | COc1ccccc1-c1nnc(SCC(=O)Nc2nccs2)o1 [CBK287390] | 107%
62 | COc1cccc(-c2nnc(SCC(=O)Nc3cc(C)on3)o2)c1 [CBK287391] | 89.9%
63 | CCc1nnc(NC(=O)CSc2ncnc3c2oc2ccccc23)s1 [CBK287392] | 90.7%
64 | O=C(CSc1ncnc2c1oc1ccccc12)Nc1ccccc1F [CBK287393] | 87.3%
65 | Cc1cc(C)cc(NC(=O)CSc2ncnc3c2oc2ccccc23)c1 [CBK287394] | 90.5%
66 | c1ccc(CSc2ncnc3c2oc2ccccc23)cc1 [CBK287398] | 103%
67 | O=C(CSc1nccn1-c1ccccc1)Nc1ccc(F)cc1 [CBK287399] | 76.1%
68 | COc1ccc(OC)c2sc(NC(=O)c3ccc(Br)s3)nc12 [CBK287400] | 93.7%
69 | O=C(Nc1nnc(-c2ccc3c(c2)OCCO3)o1)c1ccc2c(c1)OCCO2 [CBK287403] | 84.5%
70 | CCC(=O)Nc1nnc(-c2ccc3c(c2)OCCO3)o1 [CBK287404] | 92.6%
71 | O=C(Nc1nnc(C2=COCCO2)o1)c1ccc(-c2ccccc2)cc1 [CBK287407] | 84.5%
72 | COc1ccc(C(=O)Nc2nnc(C3=COCCO3)o2)cc1 [CBK287409] | 93.9%

Row | Compound | viability at 28.5 h, 10 µM
73 | N#Cc1ccc(C(=O)Nc2nnc(C3=COCCO3)o2)cc1 [CBK287411] | 83.3%
74 | CN(C)c1ccc(C(=O)Nc2nnc(C3=COCCO3)o2)cc1 [CBK287415] | 98.8%
75 | O=C(Cc1ccccc1)Nc1nnc(C2=COCCO2)o1 [CBK287416] | 92.2%
76 | O=C(Nc1nnc(C2=COCCO2)o1)c1cccc(Cl)c1 [CBK287417] | 83.5%
77 | O=C(Nc1nnc(-c2ccco2)o1)c1ccc(N2C(=O)CCC2=O)cc1 [CBK287423] | 90.7%
78 | O=C(Nc1nnc(-c2ccco2)o1)c1ccc2c(c1)CCCC2 [CBK287425] | 79.1%
79 | O=C(CN1C(=O)CCC1=O)Nc1nnc(-c2ccc3c(c2)CCCC3)o1 [CBK287427] | 80.2%
80 | O=C(Nc1nnc(-c2ccccn2)o1)c1cc(Cl)ccc1Cl [CBK287429] | 96.9%
81 | O=C(Nc1nnc(-c2ccncc2)o1)c1ccc(F)cc1 [CBK287431] | 80%
82 | O=C(Nc1nnc(-c2ccncc2)o1)c1ccc(Cl)cc1Cl [CBK287433] | 82.3%
83 | Cc1cc(NC(=O)COc2ccccc2)nc2c1c(=O)oc1ccccc12 [CBK287436] | 99.8%
84 | COc1cccc(C(=O)Nc2cc(C)c3c(=O)oc4ccccc4c3n2)c1OC [CBK287437] | 106%
85 | Cc1cc(NC(=O)c2cccs2)nc2c1c(=O)oc1ccccc12 [CBK287439] | 91.8%
86 | Cc1cc(NC(=O)C(C)C)nc2c1c(=O)oc1ccccc12 [CBK287441] | 89.7%
87 | COc1ccc(C(=O)Nc2cc(C)c3c(=O)oc4ccccc4c3n2)cc1OC [CBK287442] | 89%
88 | Cc1cc(NC(=O)CC(C)(C)C)nc2c1c(=O)oc1ccccc12 [CBK287444] | 101%
89 | Cc1cc(NC(=O)c2cc3ccccc3oc2=O)nc2c1c(=O)oc1ccccc12 [CBK287445] | 100%
90 | Cc1ccccc1NC(=O)c1cnc2sccn2c1=O [CBK287447] | 74.9%
91 | O=C(Nc1ccc(Cl)c(Cl)c1)c1cnc2sccn2c1=O [CBK287449] | 83.3%
92 | Cc1ccc(C)c(NC(=O)c2cnc3sccn3c2=O)c1 [CBK287451] | 85.1%
93 | CCN(C(=O)c1cnc2scc(C)n2c1=O)c1ccccc1 [CBK287452] | 105%
94 | Cc1ccc(NC(=O)c2cnc3scc(C)n3c2=O)cc1 [CBK287454] | 107%
